Experimental data from patent US20240391862A1, “(1,4,5-TRISUBSTITUTED-1H-PYRAZOL-3-YL)OXY-2-ALKOXY ALKYL ACIDS AND THEIR DERIVATIVES, THEIR SALTS AND THEIR USE AS HERBICIDAL AGENTS” (Bayer AKtiengesellschaft, priority 2021, published 2024).

Columns and labels:
SETVI = experiment: Post-emergence herbicidal effect, greenhouse pot test; type: in vivo, Setaria viridis; conditions: Setaria viridis, 504 h, 320 g/ha, read-out: Post-emergence effect against SETVI in %
Method in brief: (§1)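 Weeds sown in sandy loam, greenhouse-grown 2–3 weeks, then sprayed at one-leaf stage with WP or EC formulations in water plus 0.5% additive at 600 l/ha. Rates 20 to 320 g/ha. Visual rating after about 3 weeks versus untreated controls (100% = plants dead, 0% = like control).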

POLCO = experiment: as above; type: in vivo, Fallopia convolvulus; conditions: for pest or weed control at 80 g/ha / pest or weed control at 320 g/ha: Fallopia convolvulus, 504 h, read-out: Post-emergence effect against POLCO in %
Method in brief: as §1

TRZAS = experiment: Post-emergence herbicidal effect and crop plant compatibility, greenhouse pot test; type: in vivo, Triticum aestivum; conditions: 20 g/ha, one-leaf stage, rated visually after about 3 weeks vs untreated controls; for percent crop injury (phytotoxicity) to wheat, post-emergence at 20 g/ha: Triticum aestivum, 504 h, read-out: Post-emergence effect at 20 g/ha against TRZAS in %
Method in brief: (§2)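 Greenhouse pot test: weeds and crops sown in sandy loam, sprayed post-emergence at one-leaf stage (2–3 weeks after sowing) with WP or EC formulations plus 0.5% additive at 600 l/ha water, rates 20–320 g/ha. Visual rating about 3 weeks later versus untreated controls (100% = dead, 0% = as control).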

VERPE = experiment: Post-emergence herbicidal effect, greenhouse pot test; type: in vivo, Veronica persica; conditions: Veronica persica, 504 h, read-out: Post-emergence effect against VERPE in %
Method in brief: as §1

ZEAMX = experiment: Post-emergence herbicidal effect and crop plant compatibility, greenhouse pot test; type: in vivo, Zea mays; conditions: one-leaf stage, rated visually after about 3 weeks vs untreated controls; for plant injury at 20 g/ha: read-out: Post-emergence effect at 20 g/ha against ZEAMX in %
Method in brief: as §2

VIOTR = experiment: Post-emergence herbicidal effect, greenhouse pot test; type: in vivo, Viola tricolor; conditions: Viola tricolor, 504 h, read-out: Post-emergence effect against VIOTR in %
Method in brief: as §1

ABUTH = experiment: as above; type: in vivo, Abutilon theophrasti; conditions: Abutilon theophrasti, 504 h, visual rating about 3 weeks after treatment, read-out: Post-emergence effect against ABUTH
Method in brief: as §1

LOLRI = experiment: as above; type: in vivo, Lolium rigidum; conditions: Lolium rigidum, 504 h, 320 g/ha, read-out: Post-emergence effect against LOLRI in %
Method in brief: as §1

ALOMY = experiment: as above; type: in vivo, Alopecurus myosuroides; conditions: Alopecurus myosuroides, 504 h, 320 g/ha, visual rating about 3 weeks after treatment, read-out: Post-emergence effect against ALOMY
Method in brief: as §1

ECHCG = experiment: as above; type: in vivo, Echinochloa crus-galli; conditions: Echinochloa crus-galli, 504 h, read-out: Post-emergence effect against ECHCG in %
Method in brief: as §1

AMARE = experiment: as above; type: in vivo, Amaranthus retroflexus; conditions: Amaranthus retroflexus, 504 h, visual rating about 3 weeks after treatment, read-out: Post-emergence effect against AMARE
Method in brief: as §1

DIGSA = experiment: as above; type: in vivo, Digitaria sanguinalis; conditions: Digitaria sanguinalis, 504 h, 320 g/ha, visual rating about 3 weeks after treatment, read-out: Post-emergence effect against DIGSA
Method in brief: as §1

AVEFA = experiment: as above; type: in vivo, Avena fatua; conditions: 320 g/ha, visual rating about 3 weeks after treatment; for pest or weed control at 320 g/ha: Avena fatua, 504 h, read-out: Post-emergence effect against AVEFA
Method in brief: as §1

PHBPU = experiment: as above; type: in vivo, Ipomoea purpurea; conditions: Ipomoea purpurea, 504 h, read-out: Post-emergence effect against PHBPU in %
Method in brief: as §1

KCHSC = experiment: as above; type: in vivo
Method in brief: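 Greenhouse plants in sandy loam, sprayed post-emergence at the one-leaf stage (2–3 weeks after sowing) with WP or EC formulations in water plus 0.5% additive at 600 l/ha. Rates 20 to 320 g/ha. Activity rated visually after about 3 weeks against untreated controls (0% like control, 100% dead).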

Compound | pest or weed control at 80 g/ha (POLCO) [%] | pest or weed control at 320 g/ha (POLCO; 320 g/ha) [%] | percent crop injury (phytotoxicity) to wheat, post-emergence at 20 g/ha (TRZAS) [%] | pest or weed control at 80 g/ha (VERPE) [%] | pest or weed control at 320 g/ha (VERPE) [%] | plant injury at 20 g/ha (ZEAMX; Zea mays, 504 h, 20 g/ha) [%] | pest or weed control at 80 g/ha (VIOTR) [%] | pest or weed control at 320 g/ha (VIOTR) [%] | pest or weed control at 320 g/ha (ABUTH) [%] | pest or weed control at 320 g/ha (LOLRI) [%] | pest or weed control at 320 g/ha (ALOMY) [%] | pest or weed control at 320 g/ha (ECHCG) [%] | pest or weed control at 320 g/ha (AMARE) [%] | pest or weed control at 320 g/ha (DIGSA) [%] | pest or weed control at 320 g/ha (AVEFA) [%] | pest or weed control at 80 g/ha (PHBPU) [%] | pest or weed control at 320 g/ha (PHBPU) [%] | other results
COC(=O)C(OC)Oc1nn(-c2ncccc2F)c(-c2ccc(F)nc2)c1Cl (stereo not shown) [Example I-38] | 90 | 90 | 0 | 80 | 100 | 0 | 80 | 90 | 80 | 100 | 100 | 100 | 90 | 90 | 90 | 90 | 90 | pest or weed control at 320 g/ha (SETVI): 90%; pest or weed control at 20 g/ha (VERPE; 20 g/ha): 80%; pest or weed control at 80 g/ha (AMARE; 80 g/ha): 90%
CCOC(=O)C(OC)Oc1nn(-c2cnccn2)c(-c2ccc(F)nc2)c1Br (stereo not shown) [Example I-47] | 80 | 80 | 0 | 80 | 90 | 0 | 80 | 90 | 90 | 90 |  | 90 | 80 | 80 | 80 | 80 | 90 | plant injury at 80 g/ha (ZEAMX; Zea mays, 504 h, 80 g/ha, read-out: Post-emergence effect at 80 g/ha against ZEAMX in %): 0%; pest or weed control at 80 g/ha (ABUTH; 80 g/ha): 80%; pest or weed control at 80 g/ha (KCHSC; 504 h, 80 g/ha, read-out: Post-emergence effect against KCHSC in %): 90%; pest or weed control at 320 g/ha (KCHSC; 504 h, 320 g/ha, read-out: Post-emergence effect against KCHSC in %): 90%; pest or weed control at 80 g/ha (ECHCG; 80 g/ha): 90%
COC(Oc1nn(-c2ncccc2F)c(-c2ccc(F)nc2)c1C1CC1)C(=O)O (stereo not shown) [Example I-89] |  |  |  |  |  |  |  |  |  | 90 | 90 |  |  |  |  |  |  | Post-emergence effect against POLCO in % (POLCO; 320 g/ha): 90%; Post-emergence effect at 20 g/ha against TRZAS in % (TRZAS): 0%; Post-emergence effect at 20 g/ha against ZEAMX in % (ZEAMX; 20 g/ha): 0%; Post-emergence effect at 80 g/ha against ZEAMX in % (ZEAMX; 80 g/ha): 0%; Post-emergence effect against KCHSC in % (KCHSC; 320 g/ha): 90%; Post-emergence effect against AVEFA (AVEFA): 80%
